{
  "source": "patent US7205127B2",
  "about": "(priority 2002, dated 2007)",
  "key": {"C57BL/6J ob/ob mice": {"tested_on": "C57BL/6J ob/ob mice", "conditions": "1 mg/kg i.p. once daily for 4 days", "method": "Studies were conducted in vivo, in an animal model of obesity characterized by insulin resistance. Eight-month old C57BL/6J ob/ob mice (M&B A/S, Denmark) were matched for sex, weight and fasting blood glucose concentrations. The animals were injected intraperitoneally once daily with DPI (1 mg/kg) or water for 4 days. On day 5, the animals were fasted for 2.5 h and then given an i.p. injection of human insulin 0.5 U/kg (Actrapid, Novo Nordisk, Denmark) and their blood glucose levels were monitored for 4 h by sampling from the tail. The glucose concentration was determined using a Glucometer Accutrend Sensor (Roche)."}, "differentiated L6 cells": {"tested_on": "differentiated L6 cells", "assay": "2-deoxy-glucose transport (glucose uptake) assay in differentiated L6 myotubes", "format": "cell-based, rat", "method": "Rat skeletal muscle L6-K cells were grown in minimal essential medium (α-MEM Glutamax I) containing 10% fetal bovine serum at 37° C., 5% CO2. The cells were passaged twice weekly by treatment with trypsin-EDTA and transfer of ⅓ of the cells to new flasks with fresh culture medium. For differentiation into myotubes, 30,000 cells were seeded in 1 ml in 24-well plates. When the cells were confluent, usually after 3 days, the medium was replaced by differentiation medium consisting of α-MEM, 2% fetal bovine serum and penicillin/streptomycin at a concentration of 100 U/ml and 100 μg/ml, respectively. The medium was replaced every 2–3 days. Between days 4–7, differentiation medium containing 1 mM cytidine was used. The cells were differentiated for 8–10 days before being used in experiments.\nOn the day before the glucose transport assay, the wells of the culture plate were emptied and 1 ml serum free DMEM containing 5 mM glucose and penicillin/streptomycin was added. In some experiments the cells were treated over night with test compounds in 1 ml and additional treatments were added the next day to give a total volume of 2 ml. In these experiments, insulin (100–1000 nM) was added in 0.2 ml. When all treatments were performed after 20–24 h in serum free medium, a total volume of 1 ml was used. The wells were emptied and 0.5 ml prewarmed PBS without Ca^2+/mg^2+ containing 1 μCi/ml radioactive 2-deoxy-glucose added. After 10 min at 37° C., the wells were emptied and washed three times with cold PBS. The cell monolayer was solubilized in 0.5 ml 0.5 M NaOH for 3 h at room temperature. 400 μl was mixed with 8 ml scintillation fluid (Optiphase, Wallac) and counted in a scintillation counter (Packard TriCarb). Two 10-μl aliquots were used for determination of protein concentration using the method according to Bradford (Anal. Biochem., 1976, 72:248–54) from BioRad.\nThis effect is seen when cells are stimulated with 0.1–10 μM DPI for 1 h. A bell-shaped dose response curve for DPI with an optimum at 1 μM is recorded. The effect of suboptimal concentrations of DPI during a 1 h treatment could be stimulated further if insulin is added 30 min after DPI. However, insulin has little additional effect when the maximum effect of DPI is reached in the 1 h protocol (FIG. 1). The effective concentrations at which DPI stimulates glucose transport corresponds well to the concentrations inhibiting NAD(P)H oxidase activity in cell free systems [O'Donnell et al., Biochemical Journal, 290:41–9 (1993)]. […] On the basis of the above results it is postulated that DPI enhances a constitutive activity of the insulin receptor and/or the intracellular insulin-signaling pathway.\nAssuming that the enhancing effect of DPI on insulin signaling was due to inhibition of ROS production, it was investigated whether an exogenous source of H2O2 could counteract the effect of DPI. To this end, L6 cells were treated with 25 mU/ml of glucose oxidase for 30 min before addition of DPI."}, "[1]": {"tested_on": "thioredoxin-gp91phox fusion protein", "conditions": "in the presence of NAD(P)H and FAD; cited from earlier work"}, "NAD(P)H oxidase": {"target": "T1, NAD(P)H oxidase (Homo sapiens, UniProt P19878)", "T1 sequence (P19878 1-526)": "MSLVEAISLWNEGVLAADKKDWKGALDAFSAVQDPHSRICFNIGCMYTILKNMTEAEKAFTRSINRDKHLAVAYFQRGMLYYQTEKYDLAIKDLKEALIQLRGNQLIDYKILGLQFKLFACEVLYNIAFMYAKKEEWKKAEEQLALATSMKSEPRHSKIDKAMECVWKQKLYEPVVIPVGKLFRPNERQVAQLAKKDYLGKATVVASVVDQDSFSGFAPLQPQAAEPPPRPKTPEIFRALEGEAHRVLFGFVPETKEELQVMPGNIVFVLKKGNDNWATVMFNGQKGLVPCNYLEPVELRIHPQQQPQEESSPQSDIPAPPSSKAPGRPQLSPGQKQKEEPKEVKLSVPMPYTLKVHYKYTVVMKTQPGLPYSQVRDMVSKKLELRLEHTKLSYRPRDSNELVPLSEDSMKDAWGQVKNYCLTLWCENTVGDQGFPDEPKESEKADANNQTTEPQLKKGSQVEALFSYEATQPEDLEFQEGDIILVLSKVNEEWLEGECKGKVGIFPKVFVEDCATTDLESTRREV", "conditions": "most likely via binding to p67phox; cited from earlier work"}},
  "data": [
    {"compound": "c1ccc2c(c1)[I+]c1ccccc1-2", "note": "[DPI, Diphenylene iodonium]", "values": [
      {"measurement": "side effects of treatment", "setting": "C57BL/6J ob/ob mice; ob/ob mice", "result": "Without any overt side effects"},
      {"measurement": "blood glucose levels versus control group", "setting": "C57BL/6J ob/ob mice; 1–4 h after injection of insulin 0.5 U/kg (FIG. 3)", "result": "significantly lower blood glucose levels"},
      {"measurement": "optimum of bell-shaped dose response curve for glucose uptake", "setting": "differentiated L6 cells; 1 h treatment", "result": 1, "unit": "µM"},
      {"measurement": "reduction of stimulatory effect on glucose transport by glucose oxidase", "setting": "differentiated L6 cells; L6 cells treated with 25 mU/ml glucose oxidase for 30 min before addition of DPI (FIG. 2)", "result": 68, "unit": "%"},
      {"measurement": "concentrations at which the increase in glucose uptake is seen", "setting": "differentiated L6 cells; cells stimulated for 1 h", "result": "0.1 to 10", "unit": "µM"},
      {"measurement": "glucose uptake", "setting": "differentiated L6 cells; differentiated L6 cells incubated with DPI for 1 h (FIG. 1)", "result": "significant increase"},
      {"measurement": "diaphorase activity of thioredoxin-gp91phox fusion protein", "setting": "[1]", "result": "inhibited"}
    ]},
    {"compound": "Mastoparan", "values": [
      {"measurement": "NAD(P)H oxidase activation", "setting": "NAD(P)H oxidase", "result": "inhibit NAD(P)H oxidase activation"}
    ]},
    {"compound": "insulin: bovine insulin purchased from Sigma, used to stimulate glucose transport", "values": [
      {"measurement": "reduction of insulin stimulated glucose transport by glucose oxidase", "setting": "differentiated L6 cells; L6 cells treated with 25 mU/ml glucose oxidase, 200 nM insulin (FIG. 2)", "result": 65, "unit": "%"}
    ]}
  ]
}
